Laboratory results as given in ChEMBL document CHEMBL1155148 (Antimicrob Agents Chemother, 2007).

Assays:
[1] = AUC (0 to 24 hrs) in human with MDR1 3435 CT or TT genotype at 400 mg, po once daily after 14 days coadministered with rifampin at 600 mg, po once daily; settings: plasma
[2] = Plasma concentration in human with MDR1 3435 CC genotype at 400 mg, po once daily after 14 days coadministered with rifampin at 600 […], po once daily; type: ADME, organism-based; set-up: route oral
[3] = Tmax in human with MDR1 3435 CC or CT genotype at 400 mg, po once daily after 14 days coadministered with rifampin at 600 […], po once daily; type: ADME, organism-based; set-up: route oral; settings: in vivo
[4] = Plasma concentration in human at 400 mg, po once daily after 4 days; type: ADME, organism-based
[5] = AUC (0 to 24 hrs) in human at 400 mg, po once daily after 4 days; type: ADME, organism-based; set-up: dose 400 mg, time < 24 hr, route oral; settings: plasma
[6] = Plasma concentration in human at 400 mg, po once daily after 14 days coadministered with rifampin at 600 mg, po once daily; type: ADME, organism-based
[7] = Plasma concentration in human with MDR1 3435 CC genotype at 400 mg, po once daily after 4 days; type: ADME, organism-based
[8] = AUC (0 to 24 hrs) in human with MDR1 3435 CC genotype at 400 mg, po once daily after 14 days coadministered with rifampin at 600 […], po once daily; type: ADME, organism-based; set-up: time < 24 hr, route oral; settings: plasma
[9] = AUC (0 to 24 hrs) in human at 400 mg, po once daily after 14 days coadministered with rifampin at 600 mg, po once daily; type: ADME, organism-based; set-up: dose 400 mg, time < 24 hr, route oral; settings: plasma
[10] = Plasma concentration in human with MDR1 3435 CC or CT genotype at 400 mg, po once daily after 14 days coadministered with rifampin at 600 […], po once daily; type: ADME, organism-based; set-up: route oral
[11] = Tmax in human at 400 mg, po once daily after 14 days coadministered with rifampin at 600 mg, po once daily; type: ADME, organism-based; settings: in vivo
[12] = Tmax in human with MDR1 3435 CC genotype at 400 mg, po once daily after 4 days; type: ADME, organism-based; settings: in vivo
[13] = Tmax in human at 400 mg, po once daily after 4 days; type: ADME, organism-based; settings: in vivo
[14] = Tmax in human with MDR1 3435 CC or CT genotype at 400 mg, po once daily after 4 days; type: ADME, organism-based; settings: in vivo
[15] = AUC (0 to 24 hrs) in human with MDR1 3435 CC genotype at 400 mg, po once daily after 4 days; type: ADME, organism-based; set-up: dose 400 mg, time < 24 hr, route oral; settings: plasma
[16] = Plasma concentration in human with MDR1 3435 CC or CT genotype at 400 mg, po once daily after 4 days; type: ADME, organism-based
[17] = Tmax in human with MDR1 3435 CC genotype at 400 mg, po once daily after 14 days coadministered with rifampin at 600 […], po once daily; type: ADME, organism-based; set-up: route oral; settings: in vivo
[18] = AUC (0 to 24 hrs) in human with MDR1 3435 CC or CT genotype at 400 mg, po once daily after 4 days; type: ADME, organism-based; set-up: dose 400 mg, time < 24 hr, route oral; settings: plasma
[19] = AUC (0 to 24 hrs) in human at 600 mg, po once daily after 14 days coadministered with moxifloxacin at 400 mg, po once daily; type: ADME, organism-based; set-up: dose 600 mg, time < 24 hr, route oral; settings: plasma
[20] = Plasma concentration in human at 600 mg, po once daily after 14 days coadministered with moxifloxacin at 400 mg, po once daily; type: ADME, organism-based

Row | Structure (SMILES) | AUC at 24 h [1] | concentration at 336 h [2] | Tmax [3] | concentration at 96 h [4] | AUC at 24 h [5] | concentration at 336 h [6] | concentration at 96 h [7] | AUC at 24 h [8] | AUC at 24 h [9] | concentration at 336 h [10] | Tmax [11] | Tmax [12] | Tmax [13] | Tmax [14] | AUC at 24 h [15] | concentration at 96 h [16] | Tmax [17] | AUC at 24 h [18] | AUC at 24 h [19] | concentration at 336 h [20]
1 | COc1c(N2C[C@@H]3CCCN[C@@H]3C2)c(F)cc2c(=O)c(C(=O)O)cn(C3CC3)c12 [MOXIFLOXACIN] | 30300 ng·h/mL | 2940 ng/mL | 1.05 h | 3800 ng/mL | 39400 ng·h/mL | 3600 ng/mL | 3530 ng/mL | 25500 ng·h/mL | 29200 ng·h/mL | 3830 ng/mL | 1.56 h | 1.47 h | 1.97 h | 1.91 h | 37200 ng·h/mL | 3810 ng/mL | 1.98 h | 39700 ng·h/mL |  | 
2 | CO[C@H]1/C=C/O[C@@]2(C)Oc3c(C)c(O)c4c(O)c(c(/C=N/N5CCN(C)CC5)c(O)c4c3C2=O)NC(=O)/C(C)=C\C=C\[C@H](C)[C@H](O)[C@@H](C)[C@@H](O)[C@@H](C)[C@H](OC(C)=O)[C@@H]1C [RIFAMPIN] |  |  |  |  |  |  |  |  |  |  |  |  |  |  |  |  |  |  | 44000 ng·h/mL | 9900 ng/mL
